The structures appear in SMILES notation.

For one test, the target named is T1, HIV protease (Human immunodeficiency virus type 1 group M subtype B, UniProt P04585).
T1 construct: HIV protease is diluted in the assay buffer to a final enzyme concentration of 12.3 nanomolar, based on a molecular weight of 10,780
Nature of the test: HIV protease enzyme assay (fluorescence, substrate 2-aminobenzoyl-lle-Nle-Phe(p-NO2)-Gin-ArgNH2). It counts as biochemical. The note with it: 10 microM; HIV protease 12.3 nanomolar; substrate 80 μM; pH 6.4. The procedure:
The compounds of the present invention are effective HIV protease inhibitors. […] The calculated IC50 (inhibiting concentration 50%, i.e., the concentration at which the inhibitor compound reduces enzyme activity by 50%) values are shown in Table 1. The enzyme method is described below. The substrate is 2-aminobenzoyl-lle-Nle-Phe(p-NO2)-Gin-ArgNH2. The positive control is MVT-101 [Miller, M. et al, Science, 246, 1149 (1989)]. The assay conditions are as follows:
Assay buffer: 20 mM sodium phosphate, pH 6.4
The above described substrate is dissolved in DMSO, then diluted 10 fold in assay buffer. Final substrate concentration in the assay is 80 μM. HIV protease is diluted in the assay buffer to a final enzyme concentration of 12.3 nanomolar, based on a molecular weight of 10,780.
The final concentration of DMSO is 14% and the final concentration of glycerol is 18%. The test compound is dissolved in DMSO and diluted in DMSO to 10×the test concentration; 10 μL of the enzyme preparation is added, the materials mixed and then the mixture is incubated at ambient temperature for 15 minutes. The enzyme reaction is initiated by the addition of 40 μL of substrate. The increase in fluorescence is monitored at 4 time points (0, 8, 16 and 24 minutes) at ambient temperature. Each assay is carried out in duplicate wells.
In the case of `CC(C)CCN1C[C@@H](O)[C@H](Cc2ccccc2)NC(=O)CCS(=O)(=O)CCCCCNC1=O` [Compound 17, 1-Thia-5,9,11-Triazacyclohexadecane, 7-Hydroxy-9-(3-Methylbutyl)-4,10-Dioxo-6-(Phenylmethyl)-, 1,1-Dioxide, Cis-], the inhibition (in general, the percentage by which the read-out fell short of the control) at 10 µM came out at 21%.

On to `CC(C)CCN1C[C@@H](O)[C@H](Cc2ccccc2)NC(=O)CCSCCCCCNC1=O` [Compound 5], for which the inhibition at 10 µM amounted to 20%.

As for `CC(C)CCN1C[C@@H](O)[C@H](Cc2ccccc2)NC(=O)[C@@H](NC(=O)OCc2ccccc2)CSCCCCCCC1=O` [Compound 10], 10 µM produced 47% inhibition. `CC(C)CCN1C[C@@H](O)[C@H](Cc2ccccc2)NC(=O)[C@@H](NC(=O)OCc2ccccc2)CC(=O)NCCCNC1=O` [Compound 20, Carbamic Acid, [5-Hydroxy-3-(3-Methylbutyl)-2,8,11-Trioxo-5-(Phenylmethyl)-1,3,7,12-Tetraazacyclopentadec-9-YL]-, Phenylmethylester, (98-Trans)-] displayed an inhibition at 10 µM of 16%.

Staying with this test, now noted: HIV protease 12.3 nanomolar; substrate 80 μM; pH 6.4; ambient temperature; read-out: IC50 (inhibiting concentration 50%).
`CC(C)CCN1C[C@@H](O)[C@H](Cc2ccccc2)NC(=O)[C@@H](NC(=O)c2ccc3ccccc3n2)CSCCCCCNC1=O` [Compound 9]: the IC50 amounted to 510 nM. As for `CC(C)CCN1C[C@@H](O)[C@H](Cc2ccccc2)NC(=O)[C@@H](NC(=O)OCc2ccccc2)CSCCCCCNC1=O` [Compound 2], the IC50 stood at 570 nM. Still for that read-out and setting: for `CC(C)CCN1C[C@@H](O)[C@H](Cc2ccccc2)NC(=O)[C@@H](NC(=O)OCc2ccccc2)CSCCCCNC1=O` [Compound 1] the value was 340 nM; for `CC(C)CCN1C[C@@H](O)[C@H](Cc2ccccc2)NC(=O)[C@@H](NC(=O)OCc2ccccc2)CSCCCCCCNC1=O` [Compound 3], 1730 nM. The same measure, in the same setting: the value for `CC(=O)N[C@H]1CSCCCCCNC(=O)N(CCC(C)C)C[C@@H](O)[C@H](Cc2ccccc2)NC1=O` [Compound 4] was 1600 nM; that for `CC(C)CCN1C[C@@H](O)[C@H](Cc2ccccc2)NC(=O)[C@@H](NC(=O)OCc2ccccc2)CSCCCCC(C)(C)NC1=O` [Compound 6] was 220 nM; that for `CC(C)CCN1C[C@@H](O)[C@H](Cc2ccccc2)NC(=O)[C@@H](NC(=O)OCc2ccccc2)CSCCCC(C)(C)NC1=O` [Compound 8] was 140 nM. Still for that read-out and setting: the value for `CC(C)CCN1C[C@@H](O)[C@H](Cc2ccccc2)NC(=O)[C@@H](NC(=O)OCc2ccccc2)C(C)(C)SCCCCCNC1=O` [Compound 7] was 1260 nM.
